According to patent US9090615B2, “Adamantyl derivatives as cannabinoid receptor 2 agonists” (Hoffmann-La Roche Inc., priority 2012, dated 2015):
pEC50: −log10 of the molar value. Like-named read-outs stand apart in the source and are kept apart here.

What was measured:
human CB1 receptors = biological target: T1, human CB1 receptors (Homo sapiens, UniProt P21554); assay: functional cAMP assay, CHO cells expressing human CB1; format: cell-based
T1 construct: expressed in transfected cells; host or cells: CHO cells
Protocol: CHO cells expressing human CB1 or CB2 receptors are seeded 17-24 hours prior to the experiment 50.000 cells per well in a black 96 well plate with flat clear bottom (Corning Costar #3904) in DMEM (Invitrogen No. 31331), 1×HT supplement, with 10% fetal calf serum and incubated at 5% CO2 and 37° C. in a humidified incubator. The growth medium was exchanged with Krebs Ringer Bicarbonate buffer with 1 mM IBMX and incubated at 30° C. for 30 min. Compounds were added to a final assay volume of 100 μl and incubated for 30 min at 30° C. Using the cAMP-Nano-TRF detection kit the assay (Roche Diagnostics) was stopped by the addition of 50 μl lysis reagent (Tris, NaCl, 1.5% Triton X100, 2.5% NP40, 10% NaN3) and 50 μl detection solutions (20 μM mAb Alexa700-cAMP 1:1, and 48 μM Ruthenium-2-AHA-cAMP) and shaken for 2 h at room temperature. The time-resolved energy transfer is measured by a TRF reader (Evotec Technologies GmbH), equipped with a ND:YAG laser as excitation source. The plate is measured twice with the excitation at 355 nm and at the emission with a delay of 100 ns and a gate of 100 ns, total exposure time 10 s at 730 (bandwidth 30 nm) or 645 nm (bandwidth 75 nm), respectively. The FRET signal is calculated as follows: FRET=T730-Alexa730-P(T645-B645) with P=Ru730-B730/Ru645-B645, where T730 is the test well measured at 730 nM, T645 is the test well measured at 645 nm, B730 and B645 are the buffer controls at 730 nm and 645 nm, respectively. cAMP content is determined from the function of a standard curve spanning from 10 μM to 0.1 nM cAMP.
EC50 values were determined using Activity Base analysis (ID Business Solution, Limited). The EC50 values for a wide range of cannabinoid agonists generated from this assay were in agreement with the values published in the scientific literature.

human CB2 receptors = biological target: T2, human CB2 receptors (Homo sapiens, UniProt P34972); assay: functional cAMP assay, CHO cells expressing human CB2; format: cell-based
T2 construct: expressed in transfected cells; host or cells: CHO cells
Protocol: The growth medium was exchanged with Krebs Ringer Bicarbonate buffer with 1 mM IBMX and incubated at 30° C. for 30 min. Compounds were added to a final assay volume of 100 μl and incubated for 30 min at 30° C. […] The time-resolved energy transfer is measured by a TRF reader (Evotec Technologies GmbH), equipped with a ND:YAG laser as excitation source. The plate is measured twice with the excitation at 355 nm and at the emission with a delay of 100 ns and a gate of 100 ns, total exposure time 10 s at 730 (bandwidth 30 nm) or 645 nm (bandwidth 75 nm), respectively.
EC50 values were determined using Activity Base analysis (ID Business Solution, Limited).

[1] = CHO cells expressing human CB1, read-out: Ec50:CB1 - hu cAMP
[2] = CHO cells expressing human CB2, read-out: Ec50:CB2 - hu cAMP

T2 sequence (P34972 whole entry): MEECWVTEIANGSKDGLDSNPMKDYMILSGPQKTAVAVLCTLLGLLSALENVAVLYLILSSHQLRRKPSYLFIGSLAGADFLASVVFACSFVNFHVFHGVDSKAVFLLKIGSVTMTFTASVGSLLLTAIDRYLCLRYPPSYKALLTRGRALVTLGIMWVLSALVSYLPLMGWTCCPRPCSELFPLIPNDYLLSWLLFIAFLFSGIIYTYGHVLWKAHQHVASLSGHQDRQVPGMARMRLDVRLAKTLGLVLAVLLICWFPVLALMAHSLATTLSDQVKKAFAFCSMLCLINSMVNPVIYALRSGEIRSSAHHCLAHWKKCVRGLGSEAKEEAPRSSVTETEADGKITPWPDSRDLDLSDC
T1 sequence (P21554 whole entry): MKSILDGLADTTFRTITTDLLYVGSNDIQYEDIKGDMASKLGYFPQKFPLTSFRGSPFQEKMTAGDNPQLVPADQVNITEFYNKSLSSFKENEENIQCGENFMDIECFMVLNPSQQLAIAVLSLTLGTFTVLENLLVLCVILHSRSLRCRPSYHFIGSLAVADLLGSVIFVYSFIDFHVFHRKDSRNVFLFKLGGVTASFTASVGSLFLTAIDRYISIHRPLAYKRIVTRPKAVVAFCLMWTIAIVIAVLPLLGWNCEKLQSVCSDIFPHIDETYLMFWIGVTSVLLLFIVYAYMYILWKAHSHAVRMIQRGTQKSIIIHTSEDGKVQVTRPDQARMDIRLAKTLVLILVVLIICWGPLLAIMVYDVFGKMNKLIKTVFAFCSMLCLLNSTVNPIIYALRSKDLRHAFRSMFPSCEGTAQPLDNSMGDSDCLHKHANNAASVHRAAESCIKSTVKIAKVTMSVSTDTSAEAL

Row | SMILES | pEC50 (human CB1 receptors; [1]) | pEC50 (human CB2 receptors; [2]) | pEC50 (human CB2 receptors) | pEC50 (human CB1 receptors)
1 | O=C(N1CCc2ccccc2C1)C12CC3CC(CC(C3)C1)C2 [Example 1, Adamantan-1-yl-(3,4-dihydro-1H-isoquinolin-2-yl)-methanone] | < 5.00 | 7.16 |  | 
2 | O=C(N1CCCc2ccccc21)C12CC3CC(CC(C3)C1)C2 [Example 2, Adamantan-1-yl-(3,4-dihydro-2H-quinolin-1-yl)-methanone] |  | 7.15 |  | 
3 | O=C1CCN(C(=O)C23CC4CC(CC(C4)C2)C3)c2ccccc21 [Example 3, 1-(Adamantane-1-carbonyl)-2,3-dihydro-1H-quinolin-4-one] | < 5.00 | 6.48 |  | 
4 | CC(C)(C)NC(=O)C1CCN(C(=O)C23CC4CC(CC(C4)C2)C3)c2ccccc21 (stereo not drawn) [Example 4, 1-(Adamantane-1-carbonyl)-1,2,3,4-tetrahydro-quinoline-4-carboxylic acid tert-butylamide] | < 5.00 | 6.35 |  | 
5 | COC(=O)C1Cc2ccccc2N(C(=O)C23CC4CC(CC(C4)C2)C3)C1 (stereo not drawn) [Example 5, 1-(Adamantane-1-carbonyl)-1,2,3,4-tetrahydro-quinoline-3-carboxylic acid methyl ester] | < 5.00 | 6.66 |  | 
6 | CC(C)C1(CO)CCN(C(=O)C23CC4CC(CC(C4)C2)C3)c2ccccc21 (stereo not drawn) [Example 6, Adamantan-1-yl-(4-hydroxymethyl-4-isopropyl-3,4-dihydro-2H-quinolin-1-yl)-methanone] | < 5.00 | 6.40 |  | 
7 | O=C(N1CCOc2ccccc21)C12CC3CC(CC(C3)C1)C2 [Example 7, Adamantan-1-yl-(2,3-dihydro-benzo[1,4]oxazin-4-yl)-methanone] | < 5.00 | 6.74 |  | 
8 | Cc1cccc2c1N(C(=O)C13CC4CC(CC(C4)C1)C3)CCC2 [Example 8, Adamantan-1-yl-(8-methyl-3,4-dihydro-2H-quinolin-1-yl)-methanone] | < 5.00 | 6.56 |  | 
9 | O=C(N1CCC(O)c2ccccc21)C12CC3CC(CC(C3)C1)C2 (stereo not drawn) [Example 9, Adamantan-1-yl-(4-hydroxy-3,4-dihydro-2H-quinolin-1-yl)-methanone] | < 5.00 | 6.58 |  | 
10 | CC1Cc2ccccc2N1C(=O)C12CC3CC(CC(C3)C1)C2 (stereo not drawn) [Example 10, Adamantan-1-yl-(2-methyl-2,3-dihydro-indol-1-yl)-methanone] | < 5.00 | 6.58 |  | 
11 | O=C(N1CCc2ccccc21)C12CC3CC(CC(C3)C1)C2 [Example 11, Adamantan-1-yl-(2,3-dihydro-indol-1-yl)-methanone] |  | 7.63 |  | 
12 | CCOC1CCN(C(=O)C23CC4CC(CC(C4)C2)C3)c2ccccc21 (stereo not drawn) [Example 12, Adamantan-1-yl-(4-ethoxy-3,4-dihydro-2H-quinolin-1-yl)-methanone] |  |  | 7.73 | 
13 | O=C(N1CCc2ccc([N+](=O)[O-])cc21)C12CC3CC(CC(C3)C1)C2 [Example 13, Adamantan-1-yl-(6-nitro-2,3-dihydro-indol-1-yl)-methanone] |  |  | 7.71 | < 5.00
14 | O=C(N1CCc2cc([N+](=O)[O-])ccc21)C12CC3CC(CC(C3)C1)C2 [Example 14, Adamantan-1-yl-(5-nitro-2,3-dihydro-indol-1-yl)-methanone] | < 5.00 | 7.09 |  | 
15 | O=C(N1CCc2cc(Br)ccc21)C12CC3CC(CC(C3)C1)C2 [Example 15, Adamantan-1-yl-(5-bromo-2,3-dihydro-indol-1-yl)-methanone] |  |  | 7.94 | < 5.00
16 | O=C(N1CCc2c(F)cc(F)cc21)C12CC3CC(CC(C3)C1)C2 [Example 16, Adamantan-1-yl-(4,6-difluoro-2,3-dihydro-indol-1-yl)-methanone] |  |  | 7.27 | < 5.00
17 | O=C(N1CCc2ccc(C(F)(F)F)cc21)C12CC3CC(CC(C3)C1)C2 [Example 17, Adamantan-1-yl-(6-trifluoromethyl-2,3-dihydro-indol-1-yl)-methanone] |  |  | 7.84 | 
18 | O=C(N1CCc2cc(F)ccc21)C12CC3CC(CC(C3)C1)C2 [Example 18, Adamantan-1-yl-(5-fluoro-2,3-dihydro-indol-1-yl)-methanone] |  | 8.34 |  | 

Row | SMILES | pEC50 (human CB1 receptors; [1]) | pEC50 (human CB2 receptors; [2]) | pEC50 (human CB2 receptors) | pEC50 (human CB1 receptors)
19 | COC(=O)c1ccc2c(c1)CCN2C(=O)C12CC3CC(CC(C3)C1)C2 [Example 19, 1-(Adamantane-1-carbonyl)-2,3-dihydro-1H-indole-5-carboxylic acid methyl ester] | < 5.00 | 7.15 |  | 
20 | O=C(N1CCc2c1ccnc2Cl)C12CC3CC(CC(C3)C1)C2 [Example 20, Adamantan-1-yl-(4-chloro-2,3-dihydro-pyrrolo[3,2-c]pyridin-1-yl)-methanone] | < 5.00 | 6.56 |  | 
21 | O=C(N1Cc2ccccc2C1)C12CC3CC(CC(C3)C1)C2 [Example 21, Adamantan-1-yl-(1,3-dihydro-isoindol-2-yl)-methanone] |  | 7.70 |  | 
22 | COc1cccc2c1N(C(=O)C13CC4CC(CC(C4)C1)C3)CC2 [Example 22, Adamantan-1-yl-(7-methoxy-2,3-dihydro-indol-1-yl)-methanone] |  |  | 7.58 | < 5.00
23 | CC1(C)CN(C(=O)C23C[C@H]4C[C@@H](C2)C[C@@H](C3)C4)c2ccccc21 [Example 23, Adamantan-1-yl-(3,3-dimethyl-2,3-dihydro-indol-1-yl)-methanone] |  |  | 7.80 | < 5.00
24 | COC(=O)c1cccc2c1CCN2C(=O)[C@]12C[C@H]3C[C@H](C[C@H](C3)C1)C2 [Example 24, 1-(Adamantane-1-carbonyl)-2,3-dihydro-1H-indole-4-carboxylic acid methyl ester] |  |  | 7.38 | < 5.00
25 | CC1c2ccccc2N(C(=O)C23C[C@H]4C[C@@H](C2)C[C@@H](C3)C4)C1C (stereo partly drawn) [Example 25, Adamantan-1-yl-(2,3-dimethyl-2,3-dihydro-indol-1-yl)-methanone] | < 5.00 | 6.79 |  | 
26 | Cc1ccc2c(c1)CCN2C(=O)C12CC3CC(CC(C3)C1)C2 [Example 26, Adamantan-1-yl-(5-methyl-2,3-dihydro-indol-1-yl)-methanone] | < 5.00 | 7.98 |  | 
27 | Cc1ccc2c(c1)N(C(=O)C13CC4CC(CC(C4)C1)C3)CC2 [Example 27, Adamantan-1-yl-(6-methyl-2,3-dihydro-indol-1-yl)-methanone] | < 5.00 | 8.18 |  | 
28 | Cc1cccc2c1N(C(=O)C13CC4CC(CC(C4)C1)C3)CC2 [Example 28, Adamantan-1-yl-(7-methyl-2,3-dihydro-indol-1-yl)-methanone] |  |  | 7.25 | 
29 | COc1cccc2c1CCN2C(=O)C12CC3CC(CC(C3)C1)C2 [Example 29, Adamantan-1-yl-(4-methoxy-2,3-dihydro-indol-1-yl)-methanone] | < 5.00 | 7.53 |  | 
30 | Cc1cccc2c1CCN2C(=O)C12CC3CC(CC(C3)C1)C2 [Example 30, Adamantan-1-yl-(4-methyl-2,3-dihydro-indol-1-yl)-methanone] |  | 8.37 |  | 
31 | CN1CCN(C(=O)C23C[C@H]4C[C@@H](C2)C[C@@H](C3)C4)c2ccccc21 [Example 31, Adamantan-1-yl-(4-methyl-3,4-dihydro-2H-quinoxalin-1-yl)-methanone] |  |  | 7.54 | < 5.00
32 | CC(C)N1CCN(C(=O)C23CC4CC(CC(C4)C2)C3)c2ccccc21 [Example 32, Adamantan-1-yl-(4-isopropyl-3,4-dihydro-2H-quinoxalin-1-yl)-methanone] |  |  | 8.21 | < 5.00
33 | COCCOC1CCN(C(=O)C23CC4CC(CC(C4)C2)C3)c2ccccc21 (stereo not drawn) [Example 33, Adamantan-1-yl-[4-(2-methoxy-ethoxy)-3,4-dihydro-2H-quinolin-1-yl]-methanone] |  |  | 7.67 | 
34 | COC1CCN(C(=O)C23CC4CC(CC(C4)C2)C3)c2ccccc21 (stereo not drawn) [Example 36, Adamantan-1-yl-(4-methoxy-3,4-dihydro-2H-quinolin-1-yl)-methanone] |  | 7.57 |  | 
35 | O=C(N1CCc2ccccc21)C12CC3CC(CC(O)(C3)C1)C2 [Example 41, (2,3-Dihydro-indol-1-yl)-(3-hydroxy-adamantan-1-yl)-methanone] |  | 6.31 |  | 
36 | O=C(NC12CC3CC(CC(C3)C1)C2)N1Cc2ccccc2C1 [Example 42, 1,3-Dihydro-isoindole-2-carboxylic acid adamantan-1-ylamide] |  | 7.66 |  | 
